Data reported in US6949571B2, “1,2-dihydropyridine compounds, process for preparation of the same and use thereof” (Eisai Co., Ltd., priority 2000, dated 2005).
Where a name gives a salt, the structure may show the parent alone. Read-outs that look alike come from different tables or passages of the source.

Test system: AMPA receptor
[1] = Table 1, primary culture of rat embryo cerebral cortex nerve cells, 2 μM AMPA, 1 μM MK-801
[2] = Table 2, suppression of AMPA-induced calcium influx into nerve cells
[3] = Table 3, primary culture of rat embryo cerebral cortex nerve cells, 2 μM AMPA, 1 μM MK-801
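Further: primary rat embryonic cortical neurons grown on an astrocyte layer in 96-well plates, used after at least 8 to 10 days in culture, Fura2-AM fluorescence ratio at 340/380 nm excitation.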

Row | IC50 [2] | SMILES | IC50 [1] | further results
1 | – | N#Cc1cccc(-c2cc(-c3ccccn3)cn(-c3ccccc3)c2=O)c1 [Example 63, 3-(3-Cyanophenyl)-5-(2-pyridyl)-1-phenyl-1,2-dihydropyridin-2-one] | 1100 nM | –
2 | 5600 nM | O=c1c(-c2ccc(Cl)nc2)cc(-c2ccccn2)cn1-c1ccccc1 [Example 287, 3-(2-Chloropyridin-5-yl)-5-(2-pyridyl)-1-phenyl-1,2-dihydropyridin-2-one] | – | –
3 | – | N#Cc1ccccc1-c1cc(-c2ccccn2)cn(COCc2ccccc2)c1=O [Example 316, 1-Benzyloxymethyl-3-(2-cyanophenyl)-5-(2-pyridyl)-1,2-dihydropyridin-2-one] | – | IC50 [3]: 2100 nM
4 | – | O=c1c(-c2ccccc2C(F)(F)F)cc(-c2ccccn2)cn1-c1cccnc1 [Example 132, 3-(2-Trifluoromethylphenyl)-5-(2-pyridyl)-1-(3-pyridyl)-1,2-dihydropyridin-2-one] | 3100 nM | –
5 | 5000 nM | CN(C)Cc1ccccc1-c1cc(-c2ccccn2)cn(-c2ccccc2)c1=O [Example 154, 3-(2-Dimethylaminomethylphenyl)-5-(2-pyridyl)-1-phenyl-1,2-dihydropyridin-2-one dihydrochloride] | – | –
6 | – | Cc1ccc2[nH]c(-c3cc(-c4ccccc4C#N)c(=O)n(-c4ccccc4)c3)nc2c1 [Example 351, 3-(2-Cyanophenyl)-5-(5-methyl-1H-benzimidazol-2-yl)-1-phenyl-1,2-dihydropyridin-2-one] | – | IC50 [3]: 3300 nM
7 | 4000 nM | CCS(=O)(=O)c1ccc(-n2cc(-c3ccccn3)cc(-c3ccccc3C#N)c2=O)cn1 [Example 152, 3-(2-Cyanophenyl)-5-(2-pyridyl)-1-(2-ethylsulfonylpyridin-5-yl)-1,2-dihydropyridin-2-one] | – | –
8 | 2000 nM | O=c1c(-c2ccnnc2)cc(-c2ccccn2)cn1-c1ccccc1 [Example 259, 1-Phenyl-3-(4-pyridazyl)-5-(2-pyridyl)-1,2-dihydropyridin-2-one] | – | –
9 | 4400 nM | N#Cc1ccccc1-c1cc(-c2ccc([N+](=O)[O-])cn2)cn(-c2ccccc2)c1=O [Example 299, 3-(2-Cyanophenyl)-5-(5-nitropyridin-2-yl)-1-phenyl-1,2-dihydropyridin-2-one] | – | –
10 | – | O=c1c(-c2ccccc2-c2cnco2)cc(-c2ccccn2)cn1-c1ccccc1 [Example 392, 3-[2-(5-oxazolyl)phenyl]-1-phenyl-5-(2-pyridyl)-1,2-dihydropyridin-2-one] | – | IC50 [3]: 100 nM
11 | – | CS(=O)(=O)NCc1cccc(-n2cc(-c3ccccn3)cc(-c3ccccc3C#N)c2=O)c1 [Example 24, 3-(2-Cyanophenyl)-5-(2-pyridyl)-1-(3-methylsulfonylaminomethylphenyl)-1,2-dihydropyridin-2-one] | 200 nM | –
12 | – | O=c1c(-n2ccc3ccccc32)cc(-c2ccccn2)cn1-c1ccccc1 [Example 326, 3-(Indol-1-yl)-5-(2-pyridyl)-1-phenyl-1,2-dihydropyridin-2-one] | – | IC50 [3]: 900 nM
13 | 500 nM | CCN(CC)Cc1cccc(-c2cc(-c3ccccc3C#N)c(=O)n(-c3ccccc3)c2)n1 [Example 157, 3-(2-Cyanophenyl)-5-(6-diethylaminomethyl-2-pyridyl)-1-phenyl-1,2-dihydropyridin-2-one] | – | –
14 | – | N#Cc1ccccc1-c1cc(-c2ccoc2)cn(-c2ccccc2)c1=O [Example 48] | 40 nM | –
15 | – | N#Cc1ccccc1-c1cc(-c2ccccn2)cn(CC2CCN(C(=O)OCc3ccccc3)CC2)c1=O [Example 319, 1-[1-(Benzyloxycarbonyl)piperidin-4-yl]methyl-3-(2-cyanophenyl)-5-(2-pyridyl)-1,2-dihydropyridin-2-one] | – | IC50 [3]: 2000 nM
16 | – | O=c1c(-c2ccc(Cl)cc2Cl)cc(-c2ccccn2)cn1-c1cccnc1 [Example 131, 3-(2.4-Dichlorophenyl)-5-(2-pyridyl)-1-(3-pyridyl)-1,2-dihydropyridin-2-one] | 3700 nM | –
17 | – | N#Cc1ccccc1-c1cc(-c2ccccn2)cn(-c2cccc([N+](=O)[O-])c2)c1=O [Example 8, 3-(2-Cyanophenyl)-5-(2-pyridyl)-1-(3-nitrophenyl)-1,2-dihydropyridin-2-one] | 100 nM | –
18 | 3300 nM | N#Cc1ccccc1-c1cc(-c2ccccn2)cn(-c2cccc3cccnc23)c1=O [Example 292, 3-(2-Cyanophenyl)-5-(2-pyridyl)-1-(8-quinolinyl)-1,2-dihydropyridin-2-one] | – | –
19 | – | CC(=O)N1CCC(Oc2cccc(-n3cc(-c4ccccn4)cc(-c4ccccc4C#N)c3=O)c2)CC1 [Example 333, 1-[3-(N-acetylpiperidin-4-yl-oxy)phenyl]-3-(2-cyanophenyl)-5-(2-pyridyl)-1,2-dihydropyridin-2-one] | – | IC50 [3]: 300 nM

Row | IC50 [2] | SMILES | IC50 [1] | further results
20 | – | Cc1ccc(-n2cc(-c3ccccn3)cc(-c3ccccc3C#N)c2=O)cc1[N+](=O)[O-] [Example 381, 3-(2-Cyanophenyl)-5-(2-pyridyl)-1-(2-nitrotoluen-4-yl)-1,2-dihydropyridin-2-one] | – | IC50 [3]: 400 nM
21 | – | CC(C)(C)OC(=O)N1CCC(Cn2cc(-c3ccccn3)cc(-c3ccccc3C#N)c2=O)CC1 [Example 318, 1-[1-(tert-butoxycarbonyl)piperidin-4-yl]methyl-3-(2-cyanophenyl)-5-(2-pyridyl)-1,2-dihydropyridin-2-one] | – | IC50 [3]: 3100 nM
22 | – | N#Cc1ccccc1-c1cc(-c2ccccn2)cn(-c2cncnc2)c1=O [Example 111, 3-(2-Cyanophenyl)-5-(2-pyridyl)-1-(pyrimidin-5-yl)-1,2-dihydropyridin-2-one] | 400 nM | –
23 | 400 nM | Cc1nc(-c2ccccc2-c2cc(-c3ccccn3)cn(-c3ccccc3)c2=O)no1 [Example 193, 3-[2-(5-Methyl-1,2,4-oxadiazol-3-yl)phenyl]-1-phenyl-5-(2-pyridyl)-1,2-dihydropyridin-2-one] | – | –
24 | – | CS(=O)(=O)c1ccc(-n2cc(-c3ccccn3)cc(-c3ccccc3C#N)c2=O)cc1 [Example 27, 3-(2-Cyanophenyl)-5-(2-pyridyl)-1-(4-methylsulfonylphenyl)-1,2-dihydropyridin-2-one] | 50 nM | –
25 | 400 nM | N#Cc1ccccc1-c1cc(-c2ccccn2)cn(-c2cccc(OCCN3CCCC3)c2)c1=O [Example 241, 3-(2-Cyanophenyl)-1-[3-(pyrrolidinoethoxy)phenyl]-5-(2-pyridyl)-1,2-dihydropyridin-2-one] | – | –
26 | – | CN1CCN(c2ccc(-n3cc(-c4ccccn4)cc(-c4ccccc4C#N)c3=O)cn2)CC1 [Example 121, 3-(2-Cyanophenyl)-5-(2-pyridyl)-1-[2-(4-methylpiperazin-1-yl)-pyridin-5-yl]-1,2-dihydropyridin-2-one] | 600 nM | –
27 | 300 nM | N#Cc1ccccc1-c1cc(-c2ccccn2)cn(-c2cccc(OCCCCN3CCCCC3)c2)c1=O [Example 249, 3-(2-Cyanophenyl)-1-[3-(4-piperidinobutyl-1-oxy)phenyl]-5-(2-pyridyl)-1,2-dihydropyridin-2-one] | – | –
28 | – | CS(=O)(=O)N1CCC(Oc2cccc(-n3cc(-c4ccccn4)cc(-c4ccccc4C#N)c3=O)c2)CC1 [Example 338, 3-(2-Cyanophenyl)-1-{3-[1-(methanesulfonyl)piperidin-4-yl-oxy]phenyl}-5-(2-pyridyl)-1,2-dihydropyridin-2-one] | – | IC50 [3]: 400 nM
29 | – | N#Cc1ccccc1-c1cc(-c2ccccn2)cn(-c2ccccc2C#N)c1=O [Example 110, 3-(2-Cyanophenyl)-5-(2-pyridyl)-1-(2-cyanophenyl)-1,2-dihydropyridin-2-one] | 2000 nM | –
30 | 700 nM | N#Cc1ncccc1-c1cc(-c2ncccn2)cn(-c2cccnc2)c1=O [Example 265, 3-(2-Cyanopyridin-3-yl)-1-(3-pyridyl)-5-(2-pyrimidinyl)-1,2-dihydropyridin-2-one] | – | –
31 | – | COCC1CN(c2cccc(-n3cc(-c4ccccn4)cc(-c4ccccc4C#N)c3=O)c2)C(=O)O1 (centres unmarked) [Example 13, 3-(2-Cyanophenyl)-5-(2-pyridyl)-1-[3-(5-methoxymethyl-2-oxazolidinon-3-yl)-phenyl]-1,2-dihydropyridin-2-one] | 200 nM | –
32 | 900 nM | CC(=O)N1CCN(Cc2cccc(-n3cc(-c4ccccn4)cc(-c4ccccc4C#N)c3=O)c2)CC1 [Example 251, 1-[3-[(4-Acetylpiperazino)methyl]phenyl]-3-(2-cyanophenyl)-5-(2-pyridyl)-1,2-dihydropyridin-2-one] | – | –
33 | – | N#Cc1ccc(-c2cc(-c3ccccn3)cn(-c3ccccc3)c2=O)cc1 [Example 64, 3-(4-Cyanophenyl)-5-(2-pyridyl)-1-phenyl-1,2-dihydropyridin-2-one] | 2800 nM | –
34 | 400 nM | O=c1c(-c2cccc(O)n2)cc(-c2ccccn2)cn1-c1ccccc1 [Example 165, 3-(2-Hydroxypyridin-6-yl)-1-phenyl-5-(2-pyridyl)-1,2-dihydropyridin-2-one] | – | –
35 | – | N#Cc1ccccc1-c1cc(-c2ccccn2)cn(-c2cccc(OC3CCN(C(=O)c4ccccc4)CC3)c2)c1=O [Example 334, 1-[3-(N-benzoylpiperidin-4-yl-oxy)phenyl]-3-(2-cyanophenyl)-5-(2-pyridyl)-1,2-dihydropyridin-2-one] | – | IC50 [3]: 600 nM
36 | – | N#Cc1ccccc1-c1cc(-c2cccnc2)cn(-c2ccccc2)c1=O [Example 34, 3-(2-Cyanophenyl)-5-(3-pyridyl)-1-phenyl-1,2-dihydropyridin-2-one] | 3700 nM | –
37 | 300 nM | N#Cc1ccccc1-c1cc(-c2ccccn2)cn(-c2ccc3nc(N)sc3c2)c1=O [Example 166, 1-(2-Aminobenzothiazol-6-yl)-3-(2-cyanophenyl)-5-(2-pyridyl)-1,2-dihydropyridin-2-one] | – | –
38 | – | N#Cc1ccccc1-c1cc(-c2ccco2)cn(-c2ccccc2)c1=O [Example 49] | 200 nM | –

Row | SMILES | IC50 [2] | IC50 [1] | further results
39 | O=c1c(-c2cc3ccccc3n2S(=O)(=O)c2ccccc2)cc(-c2ccccn2)cn1-c1ccccc1 [Example 293, 3-[(1-Benzenesulfonyl)indol-2-yl]-1-phenyl-5-(2-pyridyl)-1,2-dihydropyridin-2-one] | 3300 nM | – | –
40 | Cc1ccc(-c2cc(-c3ccccc3C#N)c(=O)n(-c3ccccc3)c2)nc1 [Example 196, 3-(2-Cyanophenyl)-5-(5-methylpyridin-2-yl)-1-phenyl-1,2-dihydropyridin-2-one] | 300 nM | – | –
41 | N#Cc1ccccc1-c1cc(-c2ccccn2)cn(-c2ccc(N)cc2)c1=O [Example 215, 1-(4-Aminophenyl)-3-(2-cyanophenyl)-5-(2-pyridyl)-1,2-dihydropyridin-2-one] | 100 nM | – | –
